Data reported in patent publication US20060270664A1, “Fluorescent fused-ring triazoles that inhibit cell proliferation and uses thereof” (priority 2004, published 2006).

Assays:
[1] = tested on: mouse PAM 212 keratinocytes; assay: Growth inhibition of tumor cells in culture, Coulter Counter cell count after 5 days; assay type: cell-based; conditions: PAM212, 120 h, read-out: IC50 of fused ring triazole (concentration inhibiting growth of cell line by 50%)
Method: (§1) Experiments were performed in accordance with the procedure described by Yurkow and Laskin (Cancer Chemother. Pharmacol. 1991 27:315-319). In these experiments, tumor cells were maintained in culture in growth medium consisting of Dulbecco's modified Eagle's medium (DMEM) supplemented with 10% fetal bovine. Tumor cells were plated at low density (5000 cells/well) in 6-well tissue culture dishes and allowed to adhere overnight. The medium was then replaced with phenol red-free DMEM supplemented with increasing concentrations of the compounds, with zero concentration of compound serving as the control. Six concentrations and a control were used for each inhibitor, and each concentration was tested in triplicate. After 5 days, cells were removed from the dishes and enumerated using a Coulter Counter (Coulter Electronics, Inc.). The controls and treated samples at each concentration were averaged. Data are presented as the percentage of control growth at each concentration of the compound, plus and minus the standard error. The IC50 for growth inhibition was the concentration of each compound that inhibited growth by 50%. These are depicted in Table 1.

human CX-1 colon cells = assay: as above; assay type: cell-based; conditions: 120 h, read-out: IC50 of fused ring triazole (concentration inhibiting growth of cell line by 50%)
Method: as §1

[2] = tested on: human HeLa cervical carcinoma; assay: as above; assay type: cell-based; conditions: 120 h, read-out: IC50 of fused ring triazole (concentration inhibiting growth of cell line by 50%)
Method: as §1

mouse B16 melanoma = assay: as above; assay type: cell-based; conditions: 120 h, read-out: IC50 of fused ring triazole (concentration inhibiting growth of cell line by 50%)
Method: as §1

[3] = Fluorescence excitation and emission spectra (Perkin-Elmer LS-5B Luminescence Spectrometer); assay type: physicochemical; conditions: 10 micromolar solution
Method: Excitation and emission spectra of a 10 micromolar solution of compounds IIa and IIb were determined using a Perkin-Elmer LS-5B Luminescence Spectrometer.

Structure (SMILES) | IC50 [1] | IC50 (human CX-1 colon cells) | IC50 [2] | IC50 (mouse B16 melanoma) | Emission peak [3] | Excitation peaks [3]
C1=Nn2c(nnc2-c2cccs2)S/C1=C\c1ccccc1 [Compound IId, 3-(2-thienyl)-7-(phenylmethylene)-s-triazolo[3,4-b] [1,3,4]-thiadiazine] | 18 µM | 20 µM | 28 µM | 23 µM | – | –
C1=Nn2c(nnc2-c2ccncc2)S/C1=C\c1ccccc1 [Compound IIa, 3-(4-pyridyl)-7-(phenylmethylene)-s-triazolo[3,4-b] [1,3,4]-thiadiazine] | 10 µM | 17 µM | 4 µM | 9 µM | 358 nm | –
C1=Nn2c(nnc2-c2ccccn2)S/C1=C\c1ccccc1 [Compound IIb, 3-(2-pyridyl)-7-(phenylmethylene)-s-triazolo[3,4-b] [1,3,4]-thiadiazine] | 18 µM | 30 µM | 9 µM | 15 µM | 320 nm | 249 nm
